Results: patent publication US20250145640A1, “2,2-DIFLUORO-5H-[1,3]DIOXOLO[4,5-F]ISOINDOL-7-ONE DERIVATIVES AS PESTICIDES” (SYNGENTA CROP PROTECTION AG, priority 2021, published 2025)

Assays:
Assay type in all cases: in vivo
[1] = test system: Diabrotica Balteata (Corn Root Worm); test: Example B2: Activity against Diabrotica balteata, sprayed maize sprouts on agar; details: 96 h, application rate 200 ppm, L2 larvae, assessed 4 days after infestation, read-out: effect in at least one of the two categories (mortality or growth inhibition)
Protocol: Example B2: Activity Against Diabrotica Balteata (Corn Root Worm)
Maize sprouts placed onto an agar layer in 24-well microtiter plates were treated with aqueous test solutions prepared from 10′000 ppm DMSO stock solutions by spraying. After drying, the plates were infested with L2 larvae (6 to 10 per well). The samples were assessed for mortality and growth inhibition in comparison to untreated samples 4 days after infestation.

[2] = test system: Plutella xylostella (Diamond Back Moth); test: Example B5: Activity against Plutella xylostella, artificial diet in 24-well microtiter plates; details: 192 h, application rate 200 ppm, eggs, assessed 8 days after infestation, read-out: effect in at least one of the two categories (mortality or growth inhibition)
Protocol: Example B5: Activity Against Plutella xylostella (Diamond Back Moth)
24-well microtiter plates with artificial diet were treated with aqueous test solutions prepared from 10′000 ppm DMSO stock solutions by pipetting. After drying, Plutella eggs were pipetted through a plastic stencil onto a gel blotting paper and the plate was closed with it. The samples were assessed for mortality and growth inhibition in comparison to untreated samples 8 days after infestation.

[3] = test system: Myzus persicae (Green peach aphid); test: Example B4: Activity against Myzus persicae, feeding/contact activity on sunflower leaf discs; details: foliar, 144 h, application rate 200 ppm, aphid population of mixed ages, assessed 6 days after infestation
Protocol: Example B4: Activity against Myzus persicae (Green peach aphid) Feeding/Contact activity Sunflower leaf discs were placed onto agar in a 24-well microtiter plate and sprayed with aqueous test solutions prepared from 10′000 ppm DMSO stock solutions. After drying, the leaf discs were infested with an aphid population of mixed ages. The samples were assessed for mortality 6 days after infestation.

[4] = test system: Spodoptera littoralis (Egyptian Cotton Leaf Worm); test: Example B6: Activity against Spodoptera littoralis, sprayed cotton leaf discs on agar; details: foliar, 72 h, application rate 200 ppm, L1 larvae, assessed 3 days after infestation, read-out: control (at least one of mortality, anti-feedant effect, growth inhibition)
Protocol: Example B6: Activity Against Spodoptera littoralis (Egyptian Cotton Leaf Worm)
Cotton leaf discs were placed onto agar in 24-well microtiter plates and sprayed with aqueous test solutions prepared from 10′000 ppm DMSO stock solutions. After drying the leaf discs were infested with five L1 larvae. The samples were assessed for mortality, anti-feeding effect, and growth inhibition in comparison to untreated samples 3 days after infestation. Control of Spodoptera littoralis by a test sample is given when at least one of the categories mortality, anti-feedant effect, and growth inhibition is higher than the untreated sample.

[5] = test system: Euschistus heros (Neotropical Brown Stink Bug); test: Example B3: Activity against Euschistus heros, sprayed soybean leaves on agar; details: 120 h, application rate 200 ppm, N2 nymphs, assessed 5 days after infestation, read-out: effect in at least one of the two categories (mortality or growth inhibition)
Protocol: Example B3: Activity Against Euschistus heros (Neotropical Brown Stink Bug)
Soybean leaves on agar in 24-well microtiter plates were sprayed with aqueous test solutions prepared from 10′000 ppm DMSO stock solutions. After drying the leaves were infested with N2 nymphs. The samples were assessed for mortality and growth inhibition in comparison to untreated samples 5 days after infestation.

[6] = test system: Chilo suppressalis (Striped Rice Stemborer); test: Example B1: Activity against Chilo suppressalis, artificial diet in 24-well microtiter plates; details: 144 h, application rate 200 ppm, L2 larvae, assessed 6 days after infestation, read-out: control (at least one of mortality, anti-feedant effect, growth inhibition)
Protocol: Example B1: Activity Against Chilo suppressalis (Striped Rice Stemborer)
24-well microtiter plates with artificial diet were treated with aqueous test solutions prepared from 10′000 ppm DMSO stock solutions by pipetting. After drying, the plates were infested with L2 larvae (6-8 per well). The samples were assessed for mortality, anti-feeding effect, and growth inhibition in comparison to untreated samples 6 days after infestation. Control of Chilo suppressalis by a test sample is given when at least one of the categories mortality, anti-feedant effect, and growth inhibition is higher than the untreated sample.

CCS(=O)(=O)c1cc2ccccc2nc1N1Cc2cc3c(cc2C1=O)OC(F)(F)O3 [P2, 6-(3-ethylsulfonyl-2-quinolyl)-2,2-difluoro-5H-[1,3]dioxolo[4,5-f]isoindol-7-one]
≥ 80%: percent effect (mortality or growth inhibition) at 200 ppm [1] | percent effect (mortality or growth inhibition) at 200 ppm [2] | mortality at 200 ppm [3] | percent control (mortality, anti-feedant effect or growth inhibition) at 200 ppm [4] | percent effect (mortality or growth inhibition) at 200 ppm [5]

CCS(=O)(=O)c1c(N2Cc3cc4c(cc3C2=O)OC(F)(F)O4)nn2cc(C3CC3)ccc12 [P4, 6-(6-cyclopropyl-3-ethylsulfonyl-pyrazolo[1,5-a]pyridin-2-yl)-2,2-difluoro-5H-[1,3]dioxolo[4,5-f]isoindol-7-one]
≥ 80%: control (mortality, anti-feedant effect or growth inhibition) at 200 ppm [6] | percent effect (mortality or growth inhibition) at 200 ppm [1] | percent effect (mortality or growth inhibition) at 200 ppm [2] | mortality at 200 ppm [3] | percent control (mortality, anti-feedant effect or growth inhibition) at 200 ppm [4] | percent effect (mortality or growth inhibition) at 200 ppm [5]

CCS(=O)(=O)c1c(N2Cc3cc4c(cc3C2=O)OC(F)(F)O4)nn2ccc(Cl)cc12 [P15, 6-(5-chloro-3-ethylsulfonyl-pyrazolo[1,5-a]pyridin-2-yl)-2,2-difluoro-5H-[1,3]dioxolo[4,5-f]isoindol-7-one]
≥ 80%: control (mortality, anti-feedant effect or growth inhibition) at 200 ppm [6] | percent effect (mortality or growth inhibition) at 200 ppm [1] | percent effect (mortality or growth inhibition) at 200 ppm [2] | percent control (mortality, anti-feedant effect or growth inhibition) at 200 ppm [4] | percent effect (mortality or growth inhibition) at 200 ppm [5]
